In patent publication US6949542B2, “Dihydro-benzo[b][1,4]diazepin-2-one derivatives” (Hoffman-La Roche Inc., priority 2002, dated 2005):

Structure (SMILES) | melting point
O=C1CC(c2cccc(-c3ccc(C4CC4)nc3)c2)=Nc2cc(OCC(F)(F)F)c(C(F)(F)F)cc2N1 [Example 166, 4-[3-(6-Cyclopropyl-pyridin-3-yl)-phenyl]-7-(2,2,2-trifluoro-ethoxy)-8-trifluoromethyl-1,3-dihydro-benzo[b][1,4]diazepin-2-one] | 213 to 214 °C
Cc1cc2c(cc1C(F)(F)F)NC(=O)CC(c1cccc(-c3ccc(C4CC4)nc3)c1)=N2 [Example 167, 4-[3-(6-Cyclopropyl-pyridin-3-yl)-phenyl]-7-methyl-8-trifluoromethyl-1,3-dihydro-benzo[b][1,4]diazepin-2-one] | 220 to 221 °C
COc1ccc(-c2cccc(C3=Nc4cc(C)c(C(F)(F)F)cc4NC(=O)C3)c2)cn1 [Example 168, 4-[3-(6-Methoxy-pyridin-3-yl)-phenyl]-7-methyl-8-trifluoromethyl-1,3-dihydro-benzo[b][1,4]diazepin-2-one] | 219 to 224 °C
COc1ccc(-c2cccc(C3=Nc4cc(OCC(F)(F)F)ccc4NC(=O)C3)c2)cn1 [Example 169, 4-[3-(6-Methoxy-pyridin-3-yl)-phenyl]-7-(2,2,2-trifluoro-ethoxy)-1,3-dihydro-benzo[b][1,4]diazepin-2-one] | 186 °C
COc1ccc(-c2cccc(C3=Nc4cc(OCC(F)(F)F)c(C(F)(F)F)cc4NC(=O)C3)c2)cn1 [Example 170, 4-[3-(6-Methoxy-pyridin-3-yl)-phenyl]-7-(2,2,2-trifluoro-ethoxy)-8-trifluoromethyl-1,3-dihydro-benzo[b][1,4]diazepin-2-one] | 220 to 225 °C
O=C1CC(c2cccc(-c3cccnc3)c2)=Nc2ccc(C#Cc3ccc(F)cc3)cc2N1 [Example 174, 8-(4-Fluoro-phenylethynyl)-4-(3-pyridin-3-yl-phenyl)-1,3-dihydro-benzo[b][1,4]diazepin-2-one] | 228 to 230 °C
O=C1CC(c2cccc(-c3cccnc3)c2)=Nc2ccc(C#Cc3ccccc3)cc2N1 [Example 175, 8-Phenylethynyl-4-(3-pyridin-3-yl-phenyl)-1,3-dihydro-benzo[b][1,4]diazepin-2-one] | 241 °C
O=C1CC(c2cccc(-c3ccc(C4CC4)nc3)c2)=Nc2cc(OCC(F)(F)F)ccc2N1 [Example 176, 4-[3-(6-Cyclopropyl-pyridin-3-yl)-phenyl]-7-(2,2,2-trifluoro-ethoxy)-1,3-dihydro-benzo[b][1,4]diazepin-2-one] | 178 to 180 °C
CC(C)c1ccc(-c2cccc(C3=Nc4ccc(C(F)(F)F)cc4NC(=O)C3)c2)cn1 [Example 177, 4-[3-(6-Isopropyl-pyridin-3-yl)-phenyl]-8-trifluoromethyl-1,3-dihydro-benzo[b][1,4]diazepin-2-one] | 194 °C
CC(C)c1ccc(-c2cccc(C3=Nc4cc(OCC(F)(F)F)c(C(F)(F)F)cc4NC(=O)C3)c2)cn1 [Example 178, 4-[3-(6-Isopropyl-pyridin-3-yl)-phenyl]-7-(2,2,2-trifluoro-ethoxy)-8-trifluoromethyl-1,3-dihydro-benzo[b][1,4]diazepin-2-one] | 197 °C
Cc1cc2c(cc1Cl)NC(=O)CC(c1cccc(-c3ccc(C(C)C)nc3)c1)=N2 [Example 179, 8-Chloro-4-[3-(6-isopropyl-pyridin-3-yl)-phenyl]-7-methyl-1,3-dihydro-benzo[b][1,4]diazepin-2-one] | 190 °C
Cc1cc2c(cc1C(F)(F)F)NC(=O)CC(c1cccc(-c3ccc(C(C)C)nc3)c1)=N2 [Example 180, 4-[3-(6-Isopropyl-pyridin-3-yl)-phenyl]-7-methyl-8-trifluoromethyl-1,3-dihydro-benzo[b][1,4]diazepin-2-one] | 199 °C
CCOc1cc2c(cc1Cl)NC(=O)CC(c1cccc(-c3cccnc3)c1)=N2 [Example 181, 8-Chloro-7-ethoxy-4-(3-pyridin-3-yl-phenyl)-1,3-dihydro-benzo[b][1,4]diazepin-2-one] | 210 °C
CCOc1cc2c(cc1Cl)NC(=O)CC(c1cccc(-c3ccnc(C)c3)c1)=N2 [Example 182, 8-Chloro-7-ethoxy-4-[3-(2-methyl-pyridin-4-yl)-phenyl]-1,3-dihydro-benzo[b][1,4]diazepin-2-one] | 185 °C
O=C1CC(c2cccc(-c3cccnc3)c2)=Nc2cc(Cl)c(C(F)(F)F)cc2N1 [Example 183, 7-Chloro-4-(3-pyridin-3-yl-phenyl)-8-trifluoromethyl-1,3-dihydro-benzo[b][1,4]diazepin-2-one] | 226 to 227 °C
O=C1CC(c2cccc(-c3cccnc3)c2)=Nc2ccc(OC(F)(F)F)cc2N1 [Example 185, 4-(3-Pyridin-3-yl-phenyl)-8-trifluoromethoxy-1,3-dihydro-benzo[b][1,4]diazepin-2-one] | 207 °C
O=C1CC(c2cccc(-c3cccnc3)c2)=Nc2cc(N3CCCC3)c(C(F)(F)F)cc2N1 [Example 187, 4-(3-Pyridin-3-yl-phenyl)-7-pyrrolidin-1-yl-8-trifluoromethyl-1,3-dihydro-benzo[b][1,4]diazepin-2-one] | 219 to 221 °C
O=C1CC(c2cccc(-c3cccnc3)c2)=Nc2cc(N3CCOCC3)c(C(F)(F)F)cc2N1 [Example 188, 7-Morpholin-4-yl-4-(3-pyridin-3-yl-phenyl)-8-trifluoromethyl-1,3-dihydro-benzo[b][1,4]diazepin-2-one] | 198 to 201 °C
CCc1ccc(-c2cccc(C3=Nc4cc(C)c(Cl)cc4NC(=O)C3)c2)cn1 [Example 189, 8-Chloro-4-[3-(6-ethyl-pyridin-3-yl)-phenyl]-7-methyl-1,3-dihydro-benzo[b][1,4]diazepin-2-one] | 182 to 185 °C
CCOc1cc2c(cc1C(F)(F)F)NC(=O)CC(c1cccc(-c3ccc(CC)nc3)c1)=N2 [Example 190, 7-Ethoxy-4-[3-(6-ethyl-pyridin-3-yl)-phenyl]-8-trifluoromethyl-1,3-dihydro-benzo[b][1,4]diazepin-2-one] | 218 to 219 °C
CCc1ccc(-c2cccc(C3=Nc4ccc(C(F)(F)F)cc4NC(=O)C3)c2)cn1 [Example 191, 4-[3-(6-Ethyl-pyridin-3-yl)-phenyl]-8-trifluoromethyl-1,3-dihydro-benzo[b][1,4]diazepin-2-one] | 211 °C
CCc1ccc(-c2cccc(C3=Nc4cc(OCC(F)(F)F)c(C(F)(F)F)cc4NC(=O)C3)c2)cn1 [Example 193, 4-[3-(6-Ethyl-pyridin-3-yl)-phenyl]-7-(2,2,2-trifluoro-ethoxy)-8-trifluoromethyl-1,3-dihydro-benzo[b][1,4]diazepin-2-one] | 191 °C
O=C1CC(c2cccc(-c3cccnc3)c2)=Nc2cc(OCC3CC3)c(C(F)(F)F)cc2N1 [Example 194, 7-Cyclopropylmethoxy-4-(3-pyridin-3-yl-phenyl)-8-trifluoromethyl-1,3-dihydro-benzo[b][1,4]diazepin-2-one] | 197 °C
O=C1CC(c2cccc(-c3ccc(C4CC4)nc3)c2)=Nc2cc(OCC3CC3)c(C(F)(F)F)cc2N1 [Example 196, 7-Cyclopropylmethoxy-4-[3-(6-cyclopropyl-pyridin-3-yl)-phenyl]-8-trifluoromethyl-1,3-dihydro-benzo[b][1,4]diazepin-2-one] | 223 °C
